Key:
Cathepsin S = Cathepsin S (Homo sapiens, UniProt P25774); test: Cathepsin S inhibition assay (fluorogenic peptide substrate); format: biochemical; conditions: Table II, compounds of Formula I; read-out: Ki Cat. S
Procedure, shortened: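 Ki values come from nonlinear fitting of inhibited hydrolysis rates, taking free and total inhibitor concentrations as equal. Rates measured as rising fluorescence at 380/450 nm after reaction start with 50 μM final acetyl-HPVK-aminocarbamoylcoumarin.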

Cathepsin K = biological target: T1, Cathepsin K (Homo sapiens, UniProt P43235); test: Cathepsin K inhibition assay (fluorogenic peptide substrate); selectivity ratio vs cathepsin S; format: biochemical; conditions: ratio of cathepsin K inhibition constant to cathepsin S inhibition constant; Table II
T1 sequence (P43235 115-329): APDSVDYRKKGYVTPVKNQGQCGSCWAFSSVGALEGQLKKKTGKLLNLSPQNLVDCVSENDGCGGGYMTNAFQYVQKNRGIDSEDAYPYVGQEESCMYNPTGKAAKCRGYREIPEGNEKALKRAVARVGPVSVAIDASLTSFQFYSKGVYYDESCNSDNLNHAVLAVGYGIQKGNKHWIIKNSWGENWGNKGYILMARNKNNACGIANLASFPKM
Procedure, shortened: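 Fluorogenic kinetic assay, started with acetyl-Lys-His-Pro-Lys-aminocarbamoylcoumarin at 40 μM final, hydrolysis followed at ex 380/em 450 nm. Apparent inhibition constants from progress curves, converted to competitive inhibition constants. Selectivity expressed as isozyme inhibition constant divided by cathepsin S inhibition constant.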

Sequence of Cathepsin S (P25774 115-331, species assumed): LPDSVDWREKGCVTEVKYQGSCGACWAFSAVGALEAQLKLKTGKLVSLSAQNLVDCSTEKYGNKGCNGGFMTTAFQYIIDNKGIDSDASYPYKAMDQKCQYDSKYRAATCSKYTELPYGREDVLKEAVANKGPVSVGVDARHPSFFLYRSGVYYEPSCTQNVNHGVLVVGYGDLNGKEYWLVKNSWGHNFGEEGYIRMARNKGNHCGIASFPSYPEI

| Structure (SMILES) | Ki (Cathepsin S) | Selectivity for Cat. S over Cat. K (Cathepsin K) |
| --- | --- | --- |
| COc1ccc(NCCNC(=O)[C@H](Cc2ccccc2)NC(=O)Nc2cccc3ccccc23)cc1 [Compound 101, (S)-N-[2-(4-Methoxy-phenylamino)-ethyl]-2-(3-naphthalen-1-yl-ureido)-3-phenyl-propionamide] | < 1000 nM | + (+, >10) |
| COc1ccc(NCCNC(=O)[C@H](Cc2ccccc2)NC(=O)Nc2c(C)cccc2C(C)(C)C)cc1 [Compound 102, (S)-2-[3-(2-tert-Butyl-6-methyl-phenyl)-ureido]-N-[2-(4-methoxy-phenylamino)-ethyl]-3-phenyl-propionamide] | < 100 nM | ++ (++, >100) |
| COc1ccc(NCCNC(=O)[C@H](Cc2ccccc2)NC(=O)Nc2ccc(C(C)=O)cc2)cc1 [Compound 103, (S)-2-[3-(4-Acetyl-phenyl)-ureido]-N-[2-(4-methoxy-phenylamino)-ethyl]-3-phenyl-propionamide] | < 1000 nM | ++ (++, >100) |
| COc1ccc(NCCNC(=O)[C@H](Cc2ccccc2)NC(=O)Nc2cccc(OC)c2)cc1 [Compound 104, (S)-N-[2-(4-Methoxy-phenylamino)-ethyl]-2-[3-(3-methoxy-phenyl)-ureido]-3-phenyl-propionamide] | < 10000 nM | + (+, >10) |
| O=C(Cc1ccc(F)cc1Cl)N[C@@H](CC1CCCCC1)C(=O)NCCNc1ccc(F)cc1 [Compound 107, 2-(S)-[2-(2-Chloro-4-fluoro-phenyl)-acetylamino]-3-cyclohexyl-N-[2-(4-fluoro-phenylamino)-ethyl]-propionamide] | < 100 nM | +++ (+++, >1000) |
| COc1ccc(NCCNC(=O)[C@H](CC2CCCCC2)NC(=O)c2cc(C)c(OC)c(C)c2)cc1 [Compound 111, (S)-N-{2-Cyclohexyl-1-[2-(4-methoxy-phenylamino)-ethylcarbamoyl]-ethyl}-4-methoxy-3,5-dimethyl-benzamide] | < 100 nM | ++ (++, >100) |
| COc1ccc(NCCNC(=O)[C@H](CC2CCCCC2)NC(=O)c2cc3cc(F)ccc3[nH]2)cc1 [Compound 113, (S)-5-Fluoro-1H-indole-2-carboxylic acid {2-cyclohexyl-1-[2-(4-methoxy-phenylamino)-ethylcarbamoyl]-ethyl}-amide] | < 100 nM | + (+, >10) |
| COc1ccc(NCCNC(=O)[C@H](CC2CCCCC2)NC(=O)c2sc(N)nc2C)cc1 [Compound 114, (S)-2-Amino-4-methyl-thiazole-5-carboxylic acid {2-cyclohexyl-1-[2-(4-methoxy-phenylamino)-ethylcarbamoyl]-ethyl}-amide] | < 100 nM | ++ (++, >100) |
| COc1ccc(NCCNC(=O)[C@H](CC2CCCCC2)NC(=O)c2ccc(C#N)cc2)cc1 [Compound 121, (S)-4-Cyano-N-{2-cyclohexyl-1-[2-(4-methoxy-phenylamino)-ethylcarbamoyl]-ethyl}-benzamide] | < 100 nM | + (+, >10) |
| COc1ccc(NCCNC(=O)[C@H](CC2CCCCC2)NC(=O)c2cccc(-c3csc(C)n3)c2)cc1 [Compound 123, (S)-N-{2-Cyclohexyl-1-[2-(4-methoxy-phenylamino)-ethylcarbamoyl]-ethyl}-3-(2-methyl-thiazol-4-yl)-benzamide] | < 100 nM | ++ (++, >100) |
| O=C(Cc1cc(F)cc(F)c1)N[C@@H](CC1CCCCC1)C(=O)NCCNc1ccc(F)cc1 [Compound 125, 3-Cyclohexyl-2-(S)-[2-(3,5-difluoro-phenyl)-acetylamino]-N-[2-(4-fluoro-phenylamino)-ethyl]-propionamide] | < 100 nM | ++ (++, >100) |
| COc1ccc(NCCNC(=O)[C@H](CCC2CCCCC2)NC(=O)c2ccc(N3CCOCC3)cc2)cc1 [Compound 127, (S)-N-{3-Cyclohexyl-1-[2-(4-methoxy-phenylamino)-ethylcarbamoyl]-propyl}-4-morpholin-4-yl-benzamide] | < 1000 nM | ++ (++, >100) |
| COc1ccc(NCCNC(=O)[C@H](CCC2CCCCC2)NC(=O)[C@@H](C)c2ccccc2)cc1 [Compound 128] | < 100 nM | +++ (+++, >1000) |
| COc1ccc(NCCNC(=O)[C@H](CCC2CCCCC2)NC(=O)c2ccc(OCc3ccccc3)cc2)cc1 [Compound 129, (S)-4-Benzyloxy-N-{3-cyclohexyl-1-[2-(4-methoxy-phenylamino)-ethylcarbamoyl]-propyl}-benzamide] | < 10000 nM | + (+, >10) |
| COc1ccc(NCCNC(=O)[C@H](CCC2CCCCC2)NC(=O)c2ccc(-c3ccccc3)cc2)cc1 [Compound 130, (S)-Biphenyl-4-carboxylic acid {3-cyclohexyl-1-[2-(4-methoxy-phenylamino)-ethylcarbamoyl]-propyl}-amide] | < 10000 nM | + (+, >10) |
| COc1ccc(NCCNC(=O)[C@H](CCC2CCCCC2)NC(=O)c2cc3cc(Cl)ccc3[nH]2)cc1 [Compound 131, (S)-5-Chloro-1H-indole-2-carboxylic acid {3-cyclohexyl-1-[2-(4-methoxy-phenylamino)-ethylcarbamoyl]-propyl}-amide] | < 10000 nM | + (+, >10) |

Continued, values first:

| Ki (Cathepsin S) | Selectivity for Cat. S over Cat. K (Cathepsin K) | Structure (SMILES) |
| --- | --- | --- |
| < 100 nM | ++ (++, >100) | COc1ccc(NCCNC(=O)[C@H](CC2CCCCC2)NC(=O)c2cccc(C(F)(F)F)c2)cc1 [Compound 106, (S)-N-{2-Cyclohexyl-1-[2-(4-methoxy-phenylamino)-ethylcarbamoyl]-ethyl}-3-trifluoromethyl-benzamide] |
| < 100 nM | ++ (++, >100) | COc1ccc(NCCNC(=O)[C@H](CC2CCCCC2)NC(=O)c2cccc(C)c2Cl)cc1 [Compound 108, (S)-2-Chloro-N-{2-cyclohexyl-1-[2-(4-methoxy-phenylamino)-ethylcarbamoyl]-ethyl}-3-methyl-benzamide] |
| < 100 nM | +++ (+++, >1000) | COc1ccc(NCCNC(=O)[C@H](CC2CCCCC2)NC(=O)c2ccc(OCc3ccccc3)cc2)cc1 [Compound 109, (S)-4-Benzyloxy-N-{2-cyclohexyl-1-[2-(4-methoxy-phenylamino)-ethylcarbamoyl]-ethyl}-benzamide] |
| < 100 nM | ++ (++, >100) | COc1ccc(NCCNC(=O)[C@H](CC2CCCCC2)NC(=O)c2cc(C)c(OCc3ccccc3)c(C)c2)cc1 [Compound 110, (S)-4-Benzyloxy-N-{2-cyclohexyl-1-[2-(4-methoxy-phenylamino)-ethylcarbamoyl]-ethyl}-3,5-dimethyl-benzamide] |
| < 100 nM | ++ (++, >100) | COc1ccc(NCCNC(=O)[C@H](CC2CCCCC2)NC(=O)c2ccc(C)c(Br)c2)cc1 [Compound 112, (S)-3-Bromo-N-{2-cyclohexyl-1-[2-(4-methoxy-phenylamino)-ethylcarbamoyl]-ethyl}-4-methyl-benzamide] |
| < 100 nM | +++ (+++, >1000) | COc1ccc(NCCNC(=O)[C@H](CC2CCCCC2)NC(=O)c2cnn(-c3ccccc3)c2C(F)(F)F)cc1 [Compound 115, (S)-1-Phenyl-5-trifluoromethyl-1H-pyrazole-4-carboxylic acid {2-cyclohexyl-1-[2-(4-methoxy-phenylamino)-ethylcarbamoyl]-ethyl}-amide] |
| < 100 nM | +++ (+++, >1000) | COc1ccc(NCCNC(=O)[C@H](CC2CCCCC2)NC(=O)c2cnn(-c3ccc(Cl)cc3)c2C(F)(F)F)cc1 [Compound 116, (S)-1-(4-Chloro-phenyl)-5-trifluoromethyl-1H-pyrazole-4-carboxylic acid {2-cyclohexyl-1-[2-(4-methoxy-phenylamino)-ethylcarbamoyl]-ethyl}-amide] |
| < 100 nM | ++ (++, >100) | COc1ccc(NCCNC(=O)[C@H](CC2CCCCC2)NC(=O)c2cccc(Cl)c2)cc1 [Compound 118, (S)-3-Chloro-N-{2-cyclohexyl-1-[2-(4-methoxy-phenylamino)-ethylcarbamoyl]-ethyl}-benzamide] |
| < 100 nM | + (+, >10) | COc1ccc(NCCNC(=O)[C@H](CC2CCCCC2)NC(=O)c2cccc(N(C)C)c2)cc1 [Compound 119, (S)-N-{2-Cyclohexyl-1-[2-(4-methoxy-phenylamino)-ethylcarbamoyl]-ethyl}-3-dimethylamino-benzamide] |
| < 100 nM | ++ (++, >100) | COc1ccc(NCCNC(=O)[C@H](CC2CCCCC2)NC(=O)c2cccc(C#N)c2)cc1 [Compound 120, (S)-3-Cyano-N-{2-cyclohexyl-1-[2-(4-methoxy-phenylamino)-ethylcarbamoyl]-ethyl}-benzamide] |
| < 100 nM | +++ (+++, >1000) | C[C@@H](C(=O)N[C@@H](CC1CCCCC1)C(=O)NCCNc1ccc(OC(F)(F)F)cc1)c1ccccc1 [Compound 122, N-{2-cyclohexyl-1-(S)-[2-(4-trifluoromethoxy-phenylamino)-ethylcarbamoyl]-ethyl}-2-(R)-phenyl-propionamide] |
| < 100 nM | +++ (+++, >1000) | COc1ccc(NCCNC(=O)[C@H](CCC2CCCCC2)NC(=O)c2cccc(C(F)(F)F)c2)cc1 [Compound 126, (S)-N-{3-Cyclohexyl-1-[2-(4-methoxy-phenylamino)-ethylcarbamoyl]-propyl}-3-trifluoromethyl-benzamide] |
